Measured values published in patent US10815276B2, “Cell penetrating peptides and methods of making and using thereof” (Entrada Therapeutics, Inc., priority 2014, dated 2020).
Starred links: 1 amine or outer side, 2 acyl side, 3 side chain; linkers in the order of their positions; H or OH if unused. Positions of bridges follow the written chain, without caps; N, C: chain ends. Non-standard residues stand in square brackets, D forms with d. Residues, ends and D or L forms follow the SMILES beside them. Trimesoyl = O=C(c1cc(C(=O)[*:2])cc(C(=O)[*:3])c1)[*:1]; Phe(3,4-F2) = N[C@@H](Cc1ccc(F)c(F)c1)C(=O)O; Phe(4-Br) = N[C@@H](Cc1ccc(Br)cc1)C(=O)O; Phe(4-Cl) = N[C@@H](Cc1ccc(Cl)cc1)C(=O)O; Phe(4-F) = N[C@@H](Cc1ccc(F)cc1)C(=O)O; dPhe(3-F) = N[C@H](Cc1cccc(F)c1)C(=O)O; 2Nal = N[C@@H](Cc1ccc2ccccc2c1)C(=O)O; dPhe(2-F) = N[C@H](Cc1ccccc1F)C(=O)O; Pip = O=C(O)[C@@H]1CCCCN1; Dap = NC[C@H](N)C(=O)O

target: T1, Pin1 (Homo sapiens, UniProt Q13526, S16A/Y23A); assay: Pin1 binding by FA (FITC-labeled peptides); details: FITC-labeled peptide, FA; read-out: KD
T1 construct: The full-length human S16A/Y23A mutant Pin1 was expressed and purified from E. coli; made in house
T1 sequence (Q13526 whole entry S16A/Y23A): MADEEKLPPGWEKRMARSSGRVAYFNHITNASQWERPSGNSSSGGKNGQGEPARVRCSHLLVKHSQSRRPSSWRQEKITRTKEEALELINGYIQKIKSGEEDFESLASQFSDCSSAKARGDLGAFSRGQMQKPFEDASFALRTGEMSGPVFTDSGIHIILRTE

| Kd | SMILES |
| --- | --- |
| 1680 ± 170 nM | C[C@@H]1NC(=O)[C@H](CCCNC(=N)N)NC(=O)[C@H](Cc2ccc3ccccc3c2)NC(=O)[C@@H]2CCCCN2C(=O)[C@@H]([C@H](C)O)NC(=O)[C@H](Cc2c[nH]cn2)NC(=O)[C@@H](Cc2ccccc2)NC(=O)c2cc3cc(c2)C(=O)NC[C@H](NC(=O)[C@@H](Cc2ccccc2)NC1=O)C(=O)N[C@@H](Cc1ccccc1)C(=O)N[C@@H](Cc1ccc2ccccc2c1)C(=O)N[C@@H](CCCNC(=N)N)C(=O)N[C@@H](CCCNC(=N)N)C(=O)N[C@@H](CCCNC(=N)N)C(=O)N[C@@H](CCCNC(=N)N)C(=O)N[C@H](C(=O)N[C@@H](CCCCN)C(N)=O)CNC3=O [Peptide 31, bicyclo[Tm-(D-Phe-His-D-Thr-Pip-Nal-Arg-Ala-D-Phe)-Dap-(Phe-Nal-Arg-Arg-Arg-Arg-Dap)]-Lys] ([dF]H[dT][Pip][2Nal]RA[dF][Dap]F[2Nal]RRRR[Dap]K-NH2; linker N-9-16 via Trimesoyl; C-terminus assumed) |
| 1780 ± 420 nM | C[C@@H]1NC(=O)[C@H](CCCNC(=N)N)NC(=O)[C@H](Cc2ccc3ccccc3c2)NC(=O)[C@@H]2CCCCN2C(=O)[C@@H]([C@H](C)O)NC(=O)[C@H](Cc2ccc(Br)cc2)NC(=O)[C@@H](Cc2ccccc2)NC(=O)c2cc3cc(c2)C(=O)NC[C@H](NC(=O)[C@@H](Cc2ccccc2)NC1=O)C(=O)N[C@@H](Cc1ccccc1)C(=O)N[C@@H](Cc1ccc2ccccc2c1)C(=O)N[C@@H](CCCNC(=N)N)C(=O)N[C@@H](CCCNC(=N)N)C(=O)N[C@@H](CCCNC(=N)N)C(=O)N[C@@H](CCCNC(=N)N)C(=O)N[C@H](C(=O)N[C@@H](CCCCN)C(N)=O)CNC3=O [Peptide 32, bicyclo[Tm-(D-Phe-4-BrPhe-D-Thr-Pip-Nal-Arg-Ala-D-Phe)-Dap-(Phe-Nal-Arg-Arg-Arg-Arg-Dap)]-Lys] ([dF][Phe(4-Br)][dT][Pip][2Nal]RA[dF][Dap]F[2Nal]RRRR[Dap]K-NH2; linker N-9-16 via Trimesoyl; C-terminus assumed) |
| 1070 ± 160 nM | CC(C)[C@H]1NC(=O)c2cc3cc(c2)C(=O)NC[C@H](NC(=O)[C@@H](C)NC(=O)[C@H](C)NC(=O)[C@H](CCCNC(=N)N)NC(=O)[C@H](Cc2ccc4ccccc4c2)NC(=O)[C@@H]2CCCCN2C(=O)[C@@H]([C@H](C)O)NC(=O)[C@H](Cc2ccc(F)cc2)NC1=O)C(=O)N[C@@H](Cc1ccccc1)C(=O)N[C@@H](Cc1ccc2ccccc2c1)C(=O)N[C@@H](CCCNC(=N)N)C(=O)N[C@@H](CCCNC(=N)N)C(=O)N[C@@H](CCCNC(=N)N)C(=O)N[C@@H](CCCNC(=N)N)C(=O)N[C@H](C(=O)N[C@@H](CCCCN)C(N)=O)CNC3=O [Peptide 34, bicyclo[Tm-(D-Val-4-Fpa-D-Thr-Pip-Nal-Arg-Ala-D-Ala)-Dap-(Phe-Nal-Arg-Arg-Arg-Arg-Dap)]-Lys] ([dV][Phe(4-F)][dT][Pip][2Nal]RA[dA][Dap]F[2Nal]RRRR[Dap]K-NH2; linker N-9-16 via Trimesoyl; C-terminus assumed) |
| 590 ± 50 nM | C[C@@H]1NC(=O)[C@H](CCCNC(=N)N)NC(=O)[C@H](Cc2ccc3ccccc3c2)NC(=O)[C@@H]2CCCCN2C(=O)[C@@H]([C@H](C)O)NC(=O)[C@H](Cc2ccc(F)cc2)NC(=O)[C@@H](Cc2ccccc2F)NC(=O)c2cc3cc(c2)C(=O)NC[C@H](NC(=O)[C@@H](Cc2ccccc2)NC1=O)C(=O)N[C@@H](Cc1ccccc1)C(=O)N[C@@H](Cc1ccc2ccccc2c1)C(=O)N[C@@H](CCCNC(=N)N)C(=O)N[C@@H](CCCNC(=N)N)C(=O)N[C@@H](CCCNC(=N)N)C(=O)N[C@@H](CCCNC(=N)N)C(=O)N[C@H](C(=O)N[C@@H](CCCCN)C(N)=O)CNC3=O [Peptide 35, bicyclo[Tm-(D-2-Fpa-Fpa-D-Thr-Pip-Nal-Arg-Ala-D-Phe)-Dap-(Phe-Nal-Arg-Arg-Arg-Arg-Dap)]-Lys] ([dPhe(2-F)][Phe(4-F)][dT][Pip][2Nal]RA[dF][Dap]F[2Nal]RRRR[Dap]K-NH2; linker N-9-16 via Trimesoyl; C-terminus assumed) |
| 390 ± 50 nM | C[C@@H]1NC(=O)[C@H](CCCNC(=N)N)NC(=O)[C@H](Cc2ccc3ccccc3c2)NC(=O)[C@@H]2CCCCN2C(=O)[C@@H]([C@H](C)O)NC(=O)[C@H](Cc2ccc(F)cc2)NC(=O)[C@@H](Cc2cccc(F)c2)NC(=O)c2cc3cc(c2)C(=O)NC[C@H](NC(=O)[C@@H](Cc2ccccc2)NC1=O)C(=O)N[C@@H](Cc1ccccc1)C(=O)N[C@@H](Cc1ccc2ccccc2c1)C(=O)N[C@@H](CCCNC(=N)N)C(=O)N[C@@H](CCCNC(=N)N)C(=O)N[C@@H](CCCNC(=N)N)C(=O)N[C@@H](CCCNC(=N)N)C(=O)N[C@H](C(=O)N[C@@H](CCCCN)C(N)=O)CNC3=O [Peptide 36, bicyclo[Tm-(D-3-Fpa-Fpa-D-Thr-Pip-Nal-Arg-Ala-D-Phe)-Dap-(Phe-Nal-Arg-Arg-Arg-Arg-Dap)]-Lys] ([dPhe(3-F)][Phe(4-F)][dT][Pip][2Nal]RA[dF][Dap]F[2Nal]RRRR[Dap]K-NH2; linker N-9-16 via Trimesoyl; C-terminus assumed) |

Second part, the compound before the results:

| SMILES | Kd |
| --- | --- |
| C[C@H](O)[C@H]1NC(=O)[C@H](Cc2ccc(F)cc2)NC(=O)[C@@H](Cc2ccccc2)NC(=O)c2cc3cc(c2)C(=O)NC[C@H](NC(=O)[C@@H](C)NC(=O)CNC(=O)[C@H](CCCNC(=N)N)NC(=O)[C@H](Cc2ccc4ccccc4c2)NC(=O)[C@@H]2CCCCN2C1=O)C(=O)N[C@@H](Cc1ccccc1)C(=O)N[C@@H](Cc1ccc2ccccc2c1)C(=O)N[C@@H](CCCNC(=N)N)C(=O)N[C@@H](CCCNC(=N)N)C(=O)N[C@@H](CCCNC(=N)N)C(=O)N[C@@H](CCCNC(=N)N)C(=O)N[C@H](C(=O)N[C@@H](CCCCN)C(N)=O)CNC3=O [Peptide 26, bicyclo[Tm-(D-Phe-4-Fpa-D-Thr-Pip-Nal-Arg-Gly-D-Ala)-Dap-(Phe-Nal-Arg-Arg-Arg-Arg-Dap)]-Lys] ([dF][Phe(4-F)][dT][Pip][2Nal]RG[dA][Dap]F[2Nal]RRRR[Dap]K-NH2; linker N-9-16 via Trimesoyl; C-terminus assumed) | 740 ± 110 nM |
| C[C@@H]1NC(=O)[C@H](CCCNC(=N)N)NC(=O)[C@H](Cc2ccc3ccccc3c2)NC(=O)[C@@H]2CCCCN2C(=O)[C@@H]([C@H](C)O)NC(=O)[C@H](Cc2ccc(F)cc2)NC(=O)[C@@H](Cc2ccccc2)NC(=O)c2cc3cc(c2)C(=O)NC[C@H](NC(=O)[C@@H](Cc2ccccc2)NC1=O)C(=O)N[C@@H](Cc1ccccc1)C(=O)N[C@@H](Cc1ccc2ccccc2c1)C(=O)N[C@@H](CCCNC(=N)N)C(=O)N[C@@H](CCCNC(=N)N)C(=O)N[C@@H](CCCNC(=N)N)C(=O)N[C@@H](CCCNC(=N)N)C(=O)N[C@H](C(=O)N[C@@H](CCCCN)C(N)=O)CNC3=O [Peptide 27, bicyclo[Tm-(D-Phe-4-Fpa-D-Thr-Pip-Nal-Arg-Ala-D-Phe)-Dap-(Phe-Nal-Arg-Arg-Arg-Arg-Dap)]-Lys] ([dF][Phe(4-F)][dT][Pip][2Nal]RA[dF][Dap]F[2Nal]RRRR[Dap]K-NH2; linker N-9-16 via Trimesoyl; C-terminus assumed) | 270 nM |
| C[C@@H]1NC(=O)[C@H](CCCNC(=N)N)NC(=O)[C@H](Cc2ccc3ccccc3c2)NC(=O)[C@@H]2CCCCN2C(=O)[C@@H]([C@H](C)O)NC(=O)[C@H](Cc2ccccc2)NC(=O)[C@@H](Cc2ccccc2)NC(=O)c2cc3cc(c2)C(=O)NC[C@H](NC(=O)[C@@H](Cc2ccccc2)NC1=O)C(=O)N[C@@H](Cc1ccccc1)C(=O)N[C@@H](Cc1ccc2ccccc2c1)C(=O)N[C@@H](CCCNC(=N)N)C(=O)N[C@@H](CCCNC(=N)N)C(=O)N[C@@H](CCCNC(=N)N)C(=O)N[C@@H](CCCNC(=N)N)C(=O)N[C@H](C(=O)N[C@@H](CCCCN)C(N)=O)CNC3=O [Peptide 28, bicyclo[Tm-(D-Phe-Phe-D-Thr-Pip-Nal-Arg-Ala-D-Phe)-Dap-(Phe-Nal-Arg-Arg-Arg-Arg-Dap)]-Lys] ([dF]F[dT][Pip][2Nal]RA[dF][Dap]F[2Nal]RRRR[Dap]K-NH2; linker N-9-16 via Trimesoyl; C-terminus assumed) | 1260 ± 280 nM |
| C[C@@H]1NC(=O)[C@H](CCCNC(=N)N)NC(=O)[C@H](Cc2ccc3ccccc3c2)NC(=O)[C@@H]2CCCCN2C(=O)[C@@H]([C@H](C)O)NC(=O)[C@H](Cc2ccc(F)c(F)c2)NC(=O)[C@@H](Cc2ccccc2)NC(=O)c2cc3cc(c2)C(=O)NC[C@H](NC(=O)[C@@H](Cc2ccccc2)NC1=O)C(=O)N[C@@H](Cc1ccccc1)C(=O)N[C@@H](Cc1ccc2ccccc2c1)C(=O)N[C@@H](CCCNC(=N)N)C(=O)N[C@@H](CCCNC(=N)N)C(=O)N[C@@H](CCCNC(=N)N)C(=O)N[C@@H](CCCNC(=N)N)C(=O)N[C@H](C(=O)N[C@@H](CCCCN)C(N)=O)CNC3=O [Peptide 29, bicyclo[Tm-(D-Phe-3,4-diFPhe-D-Thr-Pip-Nal-Arg-Ala-D-Phe)-Dap-(Phe-Nal-Arg-Arg-Arg-Arg-Dap)]-Lys] ([dF][Phe(3,4-F2)][dT][Pip][2Nal]RA[dF][Dap]F[2Nal]RRRR[Dap]K-NH2; linker N-9-16 via Trimesoyl; C-terminus assumed) | 410 ± 100 nM |
| C[C@@H]1NC(=O)[C@H](CCCNC(=N)N)NC(=O)[C@H](Cc2ccc3ccccc3c2)NC(=O)[C@@H]2CCCCN2C(=O)[C@@H]([C@H](C)O)NC(=O)[C@H](Cc2ccc(Cl)cc2)NC(=O)[C@@H](Cc2ccccc2)NC(=O)c2cc3cc(c2)C(=O)NC[C@H](NC(=O)[C@@H](Cc2ccccc2)NC1=O)C(=O)N[C@@H](Cc1ccccc1)C(=O)N[C@@H](Cc1ccc2ccccc2c1)C(=O)N[C@@H](CCCNC(=N)N)C(=O)N[C@@H](CCCNC(=N)N)C(=O)N[C@@H](CCCNC(=N)N)C(=O)N[C@@H](CCCNC(=N)N)C(=O)N[C@H](C(=O)N[C@@H](CCCCN)C(N)=O)CNC3=O [Peptide 30, bicyclo[Tm-(D-Phe-4-ClPhe-D-Thr-Pip-Nal-Arg-Ala-D-Phe)-Dap-(Phe-Nal-Arg-Arg-Arg-Arg-Dap)]-Lys] ([dF][Phe(4-Cl)][dT][Pip][2Nal]RA[dF][Dap]F[2Nal]RRRR[Dap]K-NH2; linker N-9-16 via Trimesoyl; C-terminus assumed) | 780 ± 50 nM |

same assay, conditions: peptide 22 vs 3; peptide 27 vs 4

| Improvement of Pin1 binding by D-Phe for D-Ala vs parent peptide | SMILES |
| --- | --- |
| ~2 fold | C[C@@H]1NC(=O)[C@H](CCCNC(=N)N)NC(=O)[C@H](Cc2ccc3ccccc3c2)NC(=O)[C@@H]2CCCCN2C(=O)[C@@H]([C@H](C)O)NC(=O)[C@H](Cc2ccc(F)cc2)NC(=O)[C@@H](Cc2ccccc2)NC(=O)c2cc3cc(c2)C(=O)NC[C@H](NC(=O)[C@@H](Cc2ccccc2)NC1=O)C(=O)N[C@@H](Cc1ccccc1)C(=O)N[C@@H](Cc1ccc2ccccc2c1)C(=O)N[C@@H](CCCNC(=N)N)C(=O)N[C@@H](CCCNC(=N)N)C(=O)N[C@@H](CCCNC(=N)N)C(=O)N[C@@H](CCCNC(=N)N)C(=O)N[C@H](C(=O)N[C@@H](CCCCN)C(N)=O)CNC3=O [Peptide 27, bicyclo[Tm-(D-Phe-4-Fpa-D-Thr-Pip-Nal-Arg-Ala-D-Phe)-Dap-(Phe-Nal-Arg-Arg-Arg-Arg-Dap)]-Lys] ([dF][Phe(4-F)][dT][Pip][2Nal]RA[dF][Dap]F[2Nal]RRRR[Dap]K-NH2; linker N-9-16 via Trimesoyl; C-terminus assumed) |
